Data from US8367659B2, “Oxazinyl isoflavonoid compounds, medicaments and use” (Marshall Edwards, Inc., priority 2007, dated 2013).

Experiments:
[1] = test system: TXB2 synthesis in RAW 264.7 murine macrophages; assay: LPS-induced TXB2 synthesis in RAW 264.7 murine macrophages; type: cell-based, mouse; conditions: 10 μM; relative to vehicle alone; FIG. 4
Protocol: (§1) The mouse macrophage cell line RAW 264.7 was cultured in DMEM supplemented with foetal calf serum (FCS), […] glutamine and 50 U/ml penicillin/streptomycin. Cells were treated with either test compound (in 0.025% DMSO) or vehicle alone, and added one hour before 50 ng/ml LPS. After incubation for 24 h, culture media was collected for PGE2 or TXB2 measurement by ELISA (Cayman Chemical), and TNFα measurement using an ELISA (Becton Dickinson). Test compounds were examined a concentration of 10 μM. […] Consequently, to assess the effect of test compounds on various analytes, cell viability was taken into consideration with the use of the formula: Actual effect of test compound=measured effect−(effect on cell viability×measured effect)

[2] = Free radical scavenging with DPPH; conditions: DPPH, 20 minutes, absorbance 517 nm; Table 4; read-out: Free radical scavenging ability EC50
Protocol: The antioxidant (free radical trapping) activity of test compounds was assessed using the stable free radical compound 2,2-diphenyl-1-picrylhydrazyl (DPPH). A stock solution of DPPH was prepared at a concentration of […] in ethanol and mixed for 10 minutes prior to use. Test compounds at a concentration of 100 μM were reacted with DPPH for, 20 minutes, alter which time the absorbance at 517 nm was determined. Initial screening of was done at 100 μM. The change in absorbance at 517 nm was compared to a reagent blank (DPPH with ethanol alone). […] The IC50 values were estimated as the concentration of test compound that caused a 0.6 change in absorbance (with 1.2 absorbance units representing total scavenging of the DPPH radical).
The antioxidant (free radical trapping) activity of test compounds was assessed using the stable free radical compound 2,2-diphenyl-1-picrylhydrazyl (DPPH). A stock solution of DPPH was prepared […] in ethanol and mixed for 10 minutes prior to use. Initial screening of test compound at a concentration of 100 μM was reacted with DPPH for 20 minutes, after which time the absorbance at 517 nm was determined. The change in absorbance was compared to a reagent blank (DPPH with ethanol alone). […] The IC50 value was estimated as the concentration of test compound that causes a 0.6 change in absorbance (with 1.2 absorbance units representing total scavenging of the DPPH radical).

[3] = test system: human umbilical vein smooth muscle cells (HUVSMC); assay: Proliferation of human umbilical vein smooth muscle cells (MTT); type: cell-based; conditions: 10 μM; 10% FCS, 5 days; FIG. 8
Protocol: The effect of test compounds on human umbilical vein smooth muscle cells (HUVSMC) was examined. Cells were seeded into 96 well plates at a low seeding rate of 1.6×10^3 cells per well, and allowed to attach for 24 hours. The cells were then washed twice with medium without FCS and incubated in medium without FCS for 20 hours to serum starve them. Analogue was prepared in medium without FCS at 20 μM and added to the plates and incubated for one hour. Final analogue concentration was therefore 10 μM. The cells were then stimulated by adding medium +20% FCS, to give a final FCS concentration of 10%. The cells were incubated until the control cells i.e. those with FCS and no compound, were just confluent (5 days). An MTT assay was performed, and difference in absorbance in analogue treated cells from the control was calculated using the formula: test/control*100−100. Results
The effect of test compounds on human umbilical vein smooth muscle cells (HUVSMC), was examined. Cells, tissue explants from a neonate (HRI—passage 2), were seeded into 96 well plates at 1×10^3 cells per well, and allowed to attach for 24 hours. They were then washed twice and incubated in medium without foetal calf serum (FCS) for 24-48 hours to serum-starve them. Test compounds were prepared in medium without FCS and added to the plates and incubated for one hour. Medium with FCS was added to give a final concentration of 10% and the plates incubated for 4-5 days until the controls were just confluent.

[4] = test system: PGE2 synthesis in RAW 264.7 murine macrophages; assay: LPS-induced PGE2 synthesis in RAW 264.7 murine macrophages; type: cell-based, mouse; conditions: 10 μM; relative to vehicle alone; FIG. 3
Protocol: as §1

cancer cell lines = assay: Anti-cancer activity, cancer cell lines tested as a group (MTT); type: cell-based
[5] = test system: NO synthesis in RAW 264.7 murine macrophages; assay: LPS-induced NO synthesis in RAW 264.7 murine macrophages (Griess); type: cell-based, mouse; conditions: 10 μM; relative to vehicle alone; FIG. 6
Protocol: as §1, with “Dickinson). Nitrite concentration is a quantitative indicator of NO production and was determined by the Griess Reaction. Briefly, 100 μL of Griess reagent was added to 50 μL of each supernatant in duplicate. The absorbance at 550 nm was measured (Molecular Devices, SpectraMax 250 microplate spectrophotometer, CA, USA), and nitrite concentrations were determined against a standard curve of sodium nitrite. The percentage nitrite inhibition was calculated as: [100−(nitrite concentration of sample/nitrite of vehicle control LPS cells)×100]. Results” for “Dickinson).”

CP70 = assay: Anti-cancer activity, CP70 ovarian cancer cells (MTT); type: cell-based; conditions: 120 h, 5 days
HPAC = assay: Anti-cancer activity, HPAC pancreatic cancer cells (MTT); type: cell-based; conditions: Homo sapiens, 120 h, 5 days
MM200 = assay: Anti-cancer activity, MM200 melanoma cells (MTT); type: cell-based; conditions: 120 h; 5 days, MTT
[6] = biological target: T1, GAL4-PPARγ fusion protein (Homo sapiens, UniProt P37231); assay: PPARγ activity in transfected HEK293 cells (beta-lactamase reporter); type: cell-based; conditions: FIG. 13: 1 μM
T1 construct: host or cells: HEK293 (human embryonic kidney), stably transfected
Protocol: Human HEK293 cells, stably transfected with the PPARγ ligand binding domain fused with the DNA binding domain of the GAL4 protein (GAL4-PPARγ fusion protein), produce beta-lactamase when incubated with PPARγ ligands. Transfected human kidney embryonic cells (Invitrogen Inc., Carlsbad, Calif.) were seeded onto matrigel in 96-well plates and allowed to attach overnight. The following day, vehicle alone (DMSO) or test compound at 1, 5 and 10 μM was added at varying concentrations to cells and incubated for 16-18 hours. Cells were then loaded with a FRET-based fluorescent substrate to assess beta-lactamase activity. Cells were protected from light, and incubated at room temperature for 2 h. Plates were read on a fluorescence plate reader with an excitation wavelength of 409 nm and emission wavelengths of 460 nm and 530 nm. Results were expressed as a ratio of these two wavelengths after the background (cell-free control wells) had been subtracted. PPARγ activity was thus determined by measuring beta-lactamase activity as assessed by a fluorescent product to substrate ratio.

T1 sequence (P37231 238-503 limits assumed): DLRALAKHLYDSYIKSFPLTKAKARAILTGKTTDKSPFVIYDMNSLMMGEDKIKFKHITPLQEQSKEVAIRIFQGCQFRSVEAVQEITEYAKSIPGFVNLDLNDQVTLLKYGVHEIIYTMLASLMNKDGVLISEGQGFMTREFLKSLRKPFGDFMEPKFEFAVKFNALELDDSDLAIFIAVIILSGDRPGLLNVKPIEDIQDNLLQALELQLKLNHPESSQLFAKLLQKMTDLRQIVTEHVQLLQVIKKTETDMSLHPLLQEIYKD
T1 sequence (P04386 1-147 partner limits assumed): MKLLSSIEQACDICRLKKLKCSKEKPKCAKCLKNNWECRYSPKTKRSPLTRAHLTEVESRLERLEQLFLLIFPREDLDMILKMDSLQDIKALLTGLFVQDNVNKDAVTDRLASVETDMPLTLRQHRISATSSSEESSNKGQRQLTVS

Question: Which results are given for Oc1ccc(C2=Cc3cc4c(cc3OC2)OCN(c2ccc(O)cc2)C4)cc1 [Compound 8, 4,4′-(Chromeno[6,7-e][1,3]oxazine-3,7 (2H,4H,8H)-diyl)diphenol]?
Answer: mean change of LPS-induced TXB2 synthesis [1]: greatest inhibition; EC50 [2]: 16 µM; effect on proliferation of HUVSMCs induced by FCS [3]: significantly inhibited the proliferation

Question: Which “mean change of LPS-induced PGE2 synthesis” value [4] does the source give for COc1ccc(CN2COc3cc4c(cc3C2)C=C(c2ccc(OC)c(OC)c2)CO4)cc1 [Compound 9, 7-(3,4-Dimethoxyphenyl)-3-(4-methoxybenzyl)-2,3,4,8-tetrahydrochromeno[6,7-e][1,3]oxazine] here?
Answer: The value was “greatest inhibition”.

Question: And the “mean change of LPS-induced TXB2 synthesis” value [1]?
Answer: Its value is “greatest inhibition”.

Question: And the EC50 [2]?
Answer: The EC50 was 36 µM.

Question: And the “toxicity against cancer cells” value (cancer cell lines; where tested)?
Answer: Its value is “moderate toxicity”.

Question: For COc1ccc(C2=Cc3cc4c(cc3OC2)OCN(c2ccccc2)C4)cc1OC [Compound 12, 7-(3,4-Dimethoxyphenyl)-3-phenyl-2,3,4,8-tetrahydrochromeno[6,7-e][1,3]oxazine], which “mean change of LPS-induced PGE2 synthesis” value [4] is on record?
Answer: Its value is “greatest inhibition”.

Question: With COc1ccc(C2=Cc3cc4c(c(C)c3OC2)OCN(Cc2ccccc2)C4)cc1OC [Compound 13, 3-Benzyl-7-(3,4-dimethoxyphenyl)-10-methyl-2,3,4,8-tetrahydrochromeno[6,7-e][1,3]oxazine] as the compound, how does the EC50 [2] read?
Answer: Its EC50 is 41 µM.

Question: With CCCN1COc2c(cc3c(c2C)OCC(c2ccc(OC)c(OC)c2)=C3)C1 [Compound 14, 7-(3,4-Dimethoxyphenyl)-10-methyl-3-propyl-2,3,4,8-tetrahydrochromeno[6,7-e][1,3]oxazine] as the compound, how does the “mean change of LPS-induced PGE2 synthesis” value [4] read?
Answer: The value was “greatest inhibition”.

Question: What about the “mean change of LPS-induced TXB2 synthesis” value [1] of the same compound?
Answer: The value was “greatest inhibition”.

Question: What about the “mean change of LPS-induced NO synthesis” value [5] of the same compound?
Answer: Its value is “greatest inhibition”.

Question: What does the source list for Oc1ccc(C2=Cc3cc4c(cc3OC2)OCN(Cc2ccc(Cl)cc2)C4)cc1 [Compound 15, 4-(3-(4-Chlorobenzyl)-2,3,4,8-tetrahydrochromeno[6,7-e][1,3]oxazin-7-yl)phenol]?
Answer: EC50 [2]: 22.5 µM; IC50 (CP70): 4.41 µM; IC50 (HPAC): 7.89 µM; IC50 (MM200): 9.4 ± 1.5 µM; activity against CP70, HPAC and MM200 cell lines (cancer cell lines; CP70, HPAC and MM200): active

Question: Which EC50 [2] does the source give for COCCCN1COc2cc3c(cc2C1)C=C(c1ccc(O)cc1)CO3 [Compound 16, 4-(3-(3-Methoxypropyl)-2,3,4,8-tetrahydrochromeno[6,7-e][1,3]oxazin-7-yl)phenol] here?
Answer: Its EC50 is 22 µM.

Question: And the IC50 (HPAC)?
Answer: Its IC50 is 3.88 µM.

Question: What about the IC50 (MM200) of the same compound?
Answer: Its IC50 is 1.8 µM.

Question: And the IC50 (cancer cell lines; read-out: most potent activity against the respective cell lines tested)?
Answer: Its IC50 is 1 to 5 µM.

Question: For Cc1ccc(N2COc3cc4c(cc3C2)C=C(c2ccc(O)cc2)CO4)cc1 [Compound 18, 4-(3-p-Tolyl-2,3,4,8-tetrahydrochromeno[6,7-e][1,3]oxazin-7-yl)phenol], which EC50 [2] is on record?
Answer: The EC50 was 29 µM.

Question: And the “effect on proliferation of HUVSMCs induced by FCS” value (“effect on proliferation” for short) [3]?
Answer: Its value is “significantly inhibited the proliferation”.

Question: And the “PPARγ activation, increase in beta-lactamase activity over media only control” value (“PPARγ activation, increase” below) [6]?
Answer: Its value is “PPARγ agonist activity”.

Question: For COc1ccc(C2=Cc3cc4c(c(C)c3OC2)OCN(c2ccc(C)cc2)C4)cc1OC [Compound 19, 7-(3,4-Dimethoxyphenyl)-10-methyl-3-p-tolyl-2,3,4,8-tetrahydrochromeno[6,7-e][1,3]oxazine], which “mean change of LPS-induced NO synthesis” value [5] is on record?
Answer: Its value is “greatest inhibition”.

Question: What about the EC50 [2] of the same compound?
Answer: The EC50 was 41 µM.

Question: What about the “effect on proliferation” value [3] of the same compound?
Answer: Its value is “significantly inhibited the proliferation”.

Question: For Cc1ccc(N2COc3cc4c(cc3C2)C=C(c2cccc(O)c2)CO4)cc1 [Compound 20, 3-(3-p-Tolyl-2,3,4,8-tetrahydrochromeno[6,7-e][1,3]oxazin-7-yl)phenol], which EC50 [2] is on record?
Answer: Its EC50 is 38 µM.

Question: And the “effect on proliferation” value [3]?
Answer: Its value is “significantly inhibited the proliferation”.

Question: And the “PPARγ activation, increase” value [6]?
Answer: Its value is “PPARγ agonist activity”.

Question: Which EC50 [2] does the source give for N#Cc1ccc(N2COc3cc4c(cc3C2)C=C(c2cccc(O)c2)CO4)cc1 [Compound 21, 4-(7-(3-Hydroxyphenyl)chromeno[6,7-e][1,3]oxazin-3(2H,4H,8H)-yl)benzonitrile] here?
Answer: The EC50 was 44 µM.

Question: Which “mean change of LPS-induced PGE2 synthesis” value [4] does the source give for O=[N+]([O-])c1cccc(N2COc3cc4c(cc3C2)C=C(c2ccc(O)cc2)CO4)c1 [Compound 23, 4-(3-(3-Nitrophenyl)-2,3,4,8-tetrahydrochromeno[6,7-e][1,3]oxazin-7-yl)phenol] here?
Answer: Its value is “greatest inhibition”.

Question: What about the “mean change of LPS-induced TXB2 synthesis” value [1] of the same compound?
Answer: The value was “greatest inhibition”.

Question: And the “mean change of LPS-induced NO synthesis” value [5]?
Answer: Its value is “greatest inhibition”.

Question: And the EC50 [2]?
Answer: The EC50 was 27 µM.

Question: What about the “PPARγ activation, increase” value [6] of the same compound?
Answer: Its value is “PPARγ agonist activity”.

Question: Which EC50 [2] does the source give for CCCN1COc2c(cc3c(c2Br)OCC(c2ccc(O)cc2)=C3)C1 [Compound 25, 4-(10-Bromo-3-propyl-2,3,4,8-tetrahydrochromeno[6,7-e][1,3]oxazin-7-yl)phenol] here?
Answer: Its EC50 is 23 µM.

Question: Which EC50 [2] does the source give for Cc1c2c(cc3c1OCN(c1ccc(O)cc1)C3)C=C(c1cccc(O)c1)CO2 [Compound 26, 3,4′-(10-Methyl-chromeno[6,7-e][1,3]oxazine-3,7(2H,4H,8H)-diyl)diphenol] here?
Answer: The EC50 was 26 µM.

Question: With CC(C)(C)c1ccc(CN2COc3cc4c(cc3C2)C=C(c2ccc(O)cc2)CO4)cc1 [Compound 29, 4-(3-(4-tert-Butylbenzyl)-2,3,4,8-tetrahydrochromeno[6,7-e][1,3]oxazin-7-yl)phenol] as the compound, how does the “PPARγ activation, increase” value [6] read?
Answer: The value was “PPARγ agonist activity”.
